{"source": "patent US10278971B2", "about": "“Fluorocyclopentenylcytosine methods of use” (Rexahn Pharmaceuticals, Inc., priority 2015, dated 2019)", "assay_type_in_all_cases": "cell-based, human", "key": {"A549": {"tested_on": "A549", "assay": "Cell cycle distribution and apoptosis by flow cytometry (PI, Annexin V)", "method": "(§1) The effect of RX-3117 on cell cycle regulation and cell death in human non-small cell lung cancer (NSCLC) cell lines A549 (adenocarcinoma), SW1573 (alveolar carcinoma) and SW1573/G- (SW1573 cell line resistant to gemcitabine) and H460 (large cell carcinoma) was assessed. The A549 and H460 cell lines were obtained from American Type Culture Collection (Manassas, Va., USA). The SW1573 cell line, obtained from Dr. Johan van Rijn (see Keiser et al., Cancer Research, 49:2988-2993 (1989)), also served as the parental cell line for SW1573/G-. A549, SW1573, and SW1573/G- and H460 were kept in exponential growth in T25 flasks (Greiner Bio-One GmbH, Frickenhausen, Germany) and cultured in Dulbecco's minimal essential medium (DMEM) or RPMI 1640 (A549) supplemented with 10% heat-inactivated fetal bovine serum (FBS) 1% streptomycin and penicillin 20 mM HEPES and maintained in 37° C. water saturated atmospheres of 5% CO2. For the cell cycle distribution, 1.5×10^5 cells were seeded in a T25 flask (Greiner Bio-One GmbH) and cultured for 72 hours after which 1 μM of RX-3117 was added and incubated for 24 hours. The cells were then harvested. After the treatment, the medium was collected in a 15 ml tube (Greiner Bio-One GmbH). The cells were washed with ice cold PBS and trypsinized (Lonza) at 37° C. The collected medium was used to inactivate trypsin of the corresponding sample and again collected in the 15 ml tube. The cells were centrifuged with the standard centrifuge program, 5 minutes at 4° C. and […]. The medium was removed, pellet washed with 1 ml PBS/0.01% BSA and centrifuged. After removal of the supernatant, the cells were fixed with 1 ml 70% ethanol and incubated at −20° C. for at least 24 hours. Subsequently, the cells were centrifuged, washed with 1 ml PBS/0.1% BSA and transferred to a FALCON FACS tube (BD, Franklin Lakes, N.J., USA). The cells were centrifuged, and the supernatant was removed followed by the addition of 0.5 μg propidium iodide (PI) (Sigma, St. Louis, Mo., USA), 0.1% trisodium citrate (Riedel-de Haen, Sigma-Aldrich Laborchemikalien GmbH, St. Louis, Mo., USA), 0.1% Triton X-100™ (Merck) and 0.1 mg/ml RNase (Sigma) (PI solution) to the samples. Subsequently, for at least 15 minutes, the cells were incubated on ice with the PI solution to stain the DNA before starting the analysis. The cells stained with the PI solution were analyzed by FACSCalibur™ (BD Biosciences, Mount View, Calif., USA). Data was analyzed with CellQuest™ Pro software.\n(§2) Cell cycle distribution and apoptosis were analyzed by plating cells in flat bottom 6 well plates (Greiner Bio-One GmbH, Frickenhausen, Germany) at the density of 5,000 cells and allowed to attach for 24 h. Thereafter cytotoxic concentrations of 5×IC50 were added. The exposure time was 24 h and 48 h and for comparison the control group was included. At each time point total amount of adherent and floating cells were harvested in round-bottom FALCON tubes (BD, Franklin Lakes, N.J., USA). After centrifugation, cell pellets were resuspended in 1.0 ml propidium iodide (PI) solution (50 ug/ml PI, 0.1% sodium citrate 0.1% Triton X-100, 0.1 mg/ml ribonuclease A) or 10 ul Annexin V (cat#31490014, Immunotools) and left on ice for 30 minutes. Subsequently, samples were analyzed using FACSCalibur (BD Biosciences, Mount View, Calif., USA). For data analysis CELLQuest™ software was carried out, using gates on DNA histograms to estimate the amount of cells in sub-G1 phase (apoptotic cells)."}, "SW1573": {"tested_on": "SW1573", "assay": "Cell cycle distribution and apoptosis by flow cytometry (PI, Annexin V)", "method": "as §1, §2"}, "DNMT1 mRNA": {"tested_on": "DNMT1 mRNA", "assay": "DNMT1 RNA expression by real-time PCR", "method": "DNMT1 protein expression was measured by Western Blotting after exposure to RX-3117 for 24 or 48 hr. DNMT1 RNA expression was measured by real-time PCR after 24 and 48 hr exposure to RX-3117. DNMT enzyme activity was measured in isolated nuclei after exposure 1 μM RX-3117 or 5 μM aza-CdR using a DNA methyltransferase assay kit provided by EpiGentek using the ability of a CpG dinding domain to bind to methylated DNA. In A549 cells the effect of 5 μM RX-3117 on overall methylation was measured with a specific antibody against 5-methyl-cytosine. Bands on Western blots were visualized using appropriate InfraRedDye using an Odyssey InfraRed imager."}}}
{"compound": "Nc1ccn([C@@H]2C(F)=C(CO)[C@@H](O)[C@H]2O)c(=O)n1", "note": "[RX-3117, 4-amino-1-((1S,4R,5S)-2-fluoro-4,5-dihydroxy-3-hydroxymethyl-cyclopent-2-enyl)-1H-pyrimidin-2-one]", "values": [{"measurement": "accumulation of cells in the G1 phase", "setting": "A549; A549, 1 μM, 24 hour exposure", "result": "induced accumulation"}, {"measurement": "increased accumulation of cells in the G1 phase", "setting": "A549; A549, 1 μM, 24 hour exposure", "result": "20-40%"}, {"measurement": "apoptosis, Annexin V stained cells", "setting": "A549; A549, 5 μM, 24, 48, 72 and 96 hour exposure", "result": "induced apoptosis"}, {"measurement": "apoptosis, PI stained cells in the sub-G1 phase", "setting": "A549; A549, 5×IC50, 24 and 48 hour exposure", "result": "induced apoptosis"}, {"measurement": "accumulation of cells in the S-phase", "setting": "A549; A549, 5×IC50, 24 and 48 hours", "result": "induced the accumulation"}, {"measurement": "cell kill", "setting": "A549; A549, 24 hour exposure", "result": "No cell kill"}, {"measurement": "accumulation in S phase", "setting": "A549; A549, 48 hour exposure", "result": 45, "unit": "%"}, {"measurement": "cell kill", "setting": "A549; A549, 48 hour exposure", "result": 8, "unit": "%"}, {"measurement": "accumulation of cells in the G1 phase", "setting": "SW1573; SW1573, 1 μM, 24 hour exposure", "result": "induced accumulation"}, {"measurement": "increased accumulation of cells in the G1 phase", "setting": "SW1573; SW1573, 1 μM, 24 hour exposure", "result": "20-40%"}, {"measurement": "apoptosis, Annexin V stained cells", "setting": "SW1573; SW1573, 10 μM, 24, 48, 72 and 96 hour exposure", "result": "induced apoptosis"}, {"measurement": "apoptosis, PI stained cells in the sub-G1 phase", "setting": "SW1573; SW1573, 5×IC50, 24 and 48 hour exposure", "result": "induced apoptosis"}, {"measurement": "accumulation of cells in the S-phase", "setting": "SW1573; SW1573, 5×IC50, 24 and 48 hours", "result": "induced the accumulation"}, {"measurement": "cell kill", "setting": "SW1573; SW1573, 24 hour exposure", "result": "No cell kill"}, {"measurement": "cell kill", "setting": "SW1573; SW1573, 48 hour exposure", "result": 15, "unit": "%"}, {"measurement": "DNMT1 mRNA", "setting": "DNMT1 mRNA; A549 and SW1573, 24 hours exposure", "result": "not affected"}, {"measurement": "DNMT1 mRNA", "setting": "DNMT1 mRNA; A549 and SW1573, 48 hr", "result": "affected moderately"}]}
